Measurements from patent US20030225152A1, “3-(Arylamino)methylene-1, 3-dihydro-2h-indol-2-ones as kinase inhibitors” (priority 2001, published 2003).

Columns and labels:
[1] = test system: VEGF-induced EBD extravasation; assay: VEGF-induced Dermal Extravasation in Guinea Pig (Miles Assay); type: in vivo
Experimental: VEGF-induced Dermal Extravasation in Guinea Pig (Miles Assay). Male Hartley guinea pigs (300-600 g) were anesthetized with isofluorane, sheared, and given a single dose of drug or the respective vehicle. The guinea pigs were dosed orally unless indicated otherwise in Table 3. Ten minutes prior to the end of drug treatment, guinea pigs were anesthetized with isofluorane, and 0.5% Evans blue dye (EBD) in PBS (13-15 mg/kg dose of EBD) was injected intravenously. After 5 minutes, triplicate intradermal injections of 100 ng rhVEGF165 in 100 μl PBS and of 100 μl PBS alone were administered on the flank. After 20 minutes, each animal was euthanized with Pentosol, and the skin containing the intradermal injection sites was removed for image analysis.
Using an analog video camera coupled to a PC, an image of each trans-illuminated skin sample was captured, and the integrated optical density of each injection site was measured using ImagePro 4. For each skin sample, the difference between the mean optical density of the VEGF sites and mean optical density of the PBS sites is the measure of VEGF-induced EBD extravasation in that animal. These measured values were averaged per study group to determine the mean VEGF-induced EBD extravasation for each experimental condition, and the group means were then compared to assess inhibition of VEGF-induced EBD extravasation in the drug-treated groups relative to the vehicle-treated controls.
(§1) To determine the dose required for 50% inhibition (ID50), the percent inhibition data was plotted as a function of oral dose, using the ‘best-fit’ analysis within MicroSoft Excel software. The ID50 value was verified visually by using the plotted data (horizontal line from 50% y value, at intersection with best-fit line drop vertical line to x axis (dose)).

[2] = test system: VEGF induced increases in intracellular calcium levels in HUVEC (human umbilical vein endothelial cells); assay: VEGF Stimulated Ca++ Signal in vitro (FLIPR); type: cell-based; conditions: VEGF 5 ng/mL; for IC50: 0.01 to 10.0 μM
How it was run: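 HUVEC loaded with Fluo-4 (45 min, 37° C.), washed, then pre-incubated 30 min with compound (10 μM single dose or 0.01–10.0 μM; 0.1% DMSO) before 5 ng/mL VEGF. Fluorescence at 516 nm read by FLIPR; IC50 from % inhibition of max-min VEGF response.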

[3] = target: T1, cytoplasmic domain of the human VEGF receptor (VEGFR-2) (Homo sapiens, UniProt P35968); assay: KDR Assay; type: biochemical; conditions: His-VEGFR-2; 3.6 μM ATP
T1 construct: The cytoplasmic domain of the human VEGF receptor (VEGFR-2) was expressed as a Histidine-tagged fusion protein; Histidine tag
How it was run: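 His-tagged human VEGFR-2 cytoplasmic domain from baculovirus-infected insect cells, acting on poly-Glu-Tyr (4:1)-coated plates with 3.6 μM ATP in Hepes pH 7.4 with MgCl2/MnCl2 and 5% final DMSO, 10 min at 25 °C. Phosphotyrosine detected by peroxidase-conjugated antibody ELISA at 492 nm; IC50 from blank-subtracted OD versus concentration.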

[4] = test system: Laser-induced Choroidal Neovascularization (CNV); assay: Laser-induced Choroidal Neovascularization (CNV) in Rat (CNV Assay); type: in vivo
Experimental: Laser-induced Choroidal Neovascularization (CNV) in Rat (CNV Assay). CNV was induced and quantified in this model as previously described (Edelman and Castro. Exp. Eye Res. 2000; 71:523-533). On day 0, male Brown Norway rats (200-300 g) were anesthetized with 100 mg/kg Ketamine and 10 mg/kg Xylazine, and pupils were dilated with 1% Tropicamide. Using the blue-green setting of a Coherent Novus Argon Laser, 3 laser bums (90 mW for 0.1 s; 100 μm diameter) were given to each eye between the retinal vessels around the optic nerve head. […]
On day 10, rats were sacrificed with 100% CO2, and blood vessels were labeled by vascular perfusion with 10 mg/ml FITC-dextran (MW 2×10^6). Using an epifluorescence microscope (20×) coupled to a spot digital camera and a PC, images were obtained from the flat mounts of the RPE-choroid-sclera from each eye, and the area occupied by hyperfluorescent neovessels within each laser lesion was measured using ImagePro 4 software.
as §1

T1 sequence (P35968 786-1356): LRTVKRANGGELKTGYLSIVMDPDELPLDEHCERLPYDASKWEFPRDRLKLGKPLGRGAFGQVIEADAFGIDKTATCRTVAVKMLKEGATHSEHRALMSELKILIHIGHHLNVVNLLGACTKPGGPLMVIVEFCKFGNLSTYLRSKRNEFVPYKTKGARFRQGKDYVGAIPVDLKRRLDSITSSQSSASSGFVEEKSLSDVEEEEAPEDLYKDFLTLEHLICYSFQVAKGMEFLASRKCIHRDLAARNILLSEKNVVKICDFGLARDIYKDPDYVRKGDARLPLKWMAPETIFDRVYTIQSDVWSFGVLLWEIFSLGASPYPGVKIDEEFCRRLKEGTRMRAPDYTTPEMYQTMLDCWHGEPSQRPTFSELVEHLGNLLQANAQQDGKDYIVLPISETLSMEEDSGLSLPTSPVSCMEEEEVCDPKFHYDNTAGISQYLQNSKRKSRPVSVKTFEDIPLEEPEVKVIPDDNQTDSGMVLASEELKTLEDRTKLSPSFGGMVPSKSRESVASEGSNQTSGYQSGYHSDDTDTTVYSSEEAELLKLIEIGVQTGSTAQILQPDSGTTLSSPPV

Row | SMILES | Miles Assay % inhibition ([1]; 75 mg/kg, PEG400, oral) | Miles Assay % inhibition ([1]; 75 mg/kg, corn oil, oral) | inhibition at 10 µM ([2]; Homo sapiens) | IC50 [3] | further results
1 | O=C1Nc2ccccc2C1=CNc1ccc(N2CCOCC2)cc1 [Example 40] | 100% | 47% | 96.7% | 250 nM | Miles Assay % inhibition ([1]; 1 mg/kg, I.V. bolus in 20% methyl cyclodextrin, preincubation period 0.5 h): 0%; Miles Assay % inhibition ([1]; 1 mg/kg, I.V. bolus in 20% methyl cyclodextrin, preincubation period 1 h): 0%; Miles Assay % inhibition ([1]; 1 mg/kg, I.V. bolus in 20% methyl cyclodextrin, preincubation period 2 h): 0%; Miles Assay % inhibition ([1]; 10 mg/kg, 43% methyl cyclodextrin, preincubation period 1 h): 6%; Miles Assay % inhibition ([1]; 75 mg/kg, homogenized corn oil, oral): 40%; Miles Assay % inhibition ([1]; 75 mg/kg, micronized corn oil, oral): 52%; Miles Assay ID50 ([1]; oral dose for 50% inhibition): 18 mg/kg; CNV Assay % inhibition ([4]; 20 mg/kg (bid), PEG400, oral): 95%; CNV Assay % inhibition ([4]; 20 mg/kg (sid), PEG400, oral): 54%; CNV Assay % inhibition ([4]; 40 mg/kg (sid), PEG400, oral): 96%; CNV Assay % inhibition ([4]; 50 mg/kg (bid), corn oil, oral): 92%; CNV Assay % inhibition (toxicity noted) ([4]; 100 mg/kg (sid), PEG400, oral): toxic; CNV Assay % inhibition ([4]; 100 mg/kg (sid), corn oil, oral): 74%; CNV Assay ID50 (mg/kg) ([4]; oral dose for 50% inhibition): ˜20 mg/kg
2 | CC1CN(c2ccc(NC=C3C(=O)Nc4ccccc43)cc2)CC(C)O1 (centres unmarked) [Example 159, 3-{[4-(2,6-Dimethyl-morpholin-4-yl)-phenylamino]-methylene}-1,3-dihydro-indol-2-one] | 91% | – | 97.4% | 350 nM | IC50 [2]: 580 nM; IC50 ([2]; Homo sapiens): ≤ 1000 nM; CNV Assay % inhibition ([4]; 100 mg/kg (sid), 10% DMAC, 10% NMP, 80% PEG400, oral): 41%
3 | O=C1Nc2ccccc2C1=CNc1ccc(OCCCCN2CCCCC2)cc1 [Example 209, 3-{[4-(4-Piperidin-1-yl-butoxy)-phenylamino]-methylene}-1,3-dihydro-indol-2-one] | 79% | 84% | 98.6% | 240 nM | CNV Assay % inhibition ([4]; 80 mg/kg (sid), corn oil, oral): 95%
4 | O=C1Nc2ccccc2C1=CNc1ccc(OCCCN2CCCC2)cc1 [Example 216, 3-{[4-(3-Pyrrolidin-1-yl-propoxy)-phenylamino]-methylene}-1,3-dihydro-indol-2-one] | 91% | – | 95.3% | 340 nM | IC50 [2]: 570 nM; IC50 ([2]; Homo sapiens): ≤ 1000 nM
5 | O=C1Nc2ccccc2C1=CNc1ccc(OCCCN2CCCCC2)cc1 [Example 218, 3-{[4-(3-Piperidin-1-yl-propoxy)-phenylamino]-methylene}-1,3-dihydro-indol-2-one] | 99% | 97% | 98.1% | 170 nM | CNV Assay % inhibition ([4]; 9.3 mg/kg (sid), corn oil, oral): 33%; CNV Assay % inhibition ([4]; 38.5 mg/kg (sid), corn oil, oral): 68%; CNV Assay % inhibition ([4]; 80 mg/kg (sid), corn oil, oral): 99%; CNV Assay ID50 ([4]; oral dose for 50% inhibition): 17 mg/kg
6 | CC1CN(c2ccc(NC=C3C(=O)Nc4ccc(F)cc43)cc2)CC(C)O1 (centres unmarked) [Example 219, 3-{[4-(2,6-Dimethyl-morpholin-4-yl)-phenylamino]-methylene}-5-fluoro-1,3-dihydro-indol-2-one] | 28% | – | 97.4% | 220 nM | IC50 [2]: 620 nM; IC50 ([2]; Homo sapiens): ≤ 1000 nM
7 | Cc1cccc2c1C(=CNc1ccc(N3CC(C)OC(C)C3)cc1)C(=O)N2 (centres unmarked) [Example 220, 3-{[4-(2,6-Dimethyl-morpholin-4-yl)-phenylamino]-methylene}-4-methyl-1,3-dihydro-indol-2-one] | 39% | – | 94.9% | 60 nM | –
8 | CC1CN(c2ccc(NC=C3C(=O)Nc4cc(F)ccc43)cc2)CC(C)O1 (centres unmarked) [Example 229, 3-{[4-(2,6-Dimethyl-morpholin-4-yl)-phenylamino]-methylene}-6-fluoro-1,3-dihydro-indol-2-one] | 97% | – | 97.2% | 110 nM | –
9 | CCN(CC)CCCOc1ccc(NC=C2C(=O)Nc3cccc(C)c32)cc1 [Example 231, 3-{[4-(3-Diethylamino-propoxy)-phenylamino]-methylene}-4-methyl-1,3-dihydro-indol-2-one] | – | 93% | 93.3% | 70 nM | CNV Assay % inhibition ([4]; 80 mg/kg (sid), corn oil, oral): 85%
10 | CCN(CC)CCCOc1ccc(NC=C2C(=O)Nc3cc(F)ccc32)cc1 [Example 234, 3-{[4-(3-Diethylamino-propoxy)-phenylamino]-methylene}-6-fluoro-1,3-dihydro-indol-2-one] | – | 95% | 96.1% | 110 nM | CNV Assay % inhibition ([4]; 8.6 mg/kg (sid), corn oil, oral): 18%; CNV Assay % inhibition ([4]; 35 mg/kg (sid), corn oil, oral): 76%; CNV Assay % inhibition ([4]; 80 mg/kg (sid), corn oil, oral): 97%; CNV Assay ID50 ([4]; oral dose for 50% inhibition): 19 mg/kg
11 | O=C1Nc2ccccc2C1=CNc1ccc(NCCN2CCOCC2)cc1 [Example 235, 3-{[4-(2-Morpholin-4-yl-ethylamino)-phenylamino]-methylene}-1,3-dihydro-indol-2-one] | – | 99% | 98.2% | 240 nM | CNV Assay % inhibition ([4]; 40 mg/kg (sid), corn oil, oral): 63%
12 | Cc1cccc2c1C(=CNc1ccc(OCCCN3CCCCC3)cc1)C(=O)N2 [Example 238, 4-Methyl-3-{[4-(3-piperidin-1-yl-propoxy)-phenylamino]-methylene}-1,3-dihydro-indol-2-one] | – | 60% | 98.4% | 60 nM | IC50 [2]: 780 nM; IC50 ([2]; Homo sapiens): ≤ 1000 nM
13 | O=C1Nc2cc(F)ccc2C1=CNc1ccc(OCCCN2CCCCC2)cc1 [Example 239, 6-Fluoro-3-{[4-(3-piperidin-1-yl-propoxy)-phenylamino]-methylene}-1,3-dihydro-indol-2-one] | – | 100% | 97.7% | 150 nM | CNV Assay % inhibition ([4]; 40 mg/kg (sid), corn oil, oral): 56%
14 | O=C1Nc2cc(F)ccc2C1=CNc1ccc(NCCN2CCOCC2)cc1 [Example 243, 6-Fluoro-3-{[4-(2-morpholin-4-yl-ethylamino)-phenylamino]-methylene}-1,3-dihydro-indol-2-one] | – | 100% | 95.6% | 110 nM | –
